≈ marks a conversion by molar mass, not a printed value. Like-named read-outs stand apart in the source and are kept apart here.
Tests used:
Assay type in all cases: cell-based
E. coli 901C = test: microbe, parasite or virus in culture; conditions: Escherichia coli; hyper-permeable E. coli 901C, broth microdilution; read-out: MIC E. coli 901C
Method in brief: (§1)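 Visual MIC readout after 16-20 h at 37° C in CLSI-format microdilution. Compounds tested as 2-fold series against a 5×10^5 CFU/mL inoculum in cation-supplemented Mueller-Hinton broth.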

K. pneumoniae SI-117 = test: microbe, parasite or virus in culture; conditions: Klebsiella pneumoniae, SI117, read-out: MIC K. pneumoniae SI-117
Method in brief: as §1

E. coli AG100A = test: microbe, parasite or virus in culture; conditions: Escherichia coli, read-out: MIC E. coli AG100A
Method in brief: as §1

K. pneumoniae UMM = test: microbe, parasite or virus in culture; conditions: Klebsiella pneumoniae; K. pneumoniae UMM producing SHV-5 and KPC-2; read-out: MIC K. pneumoniae UMM
Method in brief: as §1

E. coli D22 = test: microbe, parasite or virus in culture; conditions: Escherichia coli; hyper-permeable E. coli D22, broth microdilution; read-out: MIC E. coli D22
Method in brief: as §1

E. coli ATCC 25922 = test: Broth microdilution MIC, E. coli ATCC 25922; conditions: Escherichia coli
Method in brief: as §1

N. gonorrhoeae WHO F = test: Liquid broth MIC, N. gonorrhoeae WHO F; conditions: Neisseria gonorrhoeae; N. gonorrhoeae WHO F, liquid broth; read-out: Minimum Inhibitory Concentration, N. gonorrhoeae WHO F
Method in brief: (§2)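 In liquid broth, wild-type reference gonococci at 5×10^5 CFU/mL faced twofold compound dilutions for 40-42 hours (36° C, 5% CO2). The MIC was the lowest concentration with no growth seen by eye.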

[1] = test system: N. gonorrhoeae ATCC 49226; test: Liquid broth MIC, N. gonorrhoeae ATCC 49226; conditions: Neisseria gonorrhoeae, ATCC49226; N. gonorrhoeae ATCC 49226, liquid broth; read-out: Minimum Inhibitory Concentration, N. gonorrhoeae ATCC 49226
Method in brief: as §2

[2] = ATCC25922, E. coli ATCC 25922, broth microdilution, read-out: MIC E. coli 25922

| SMILES | MIC (E. coli 901C) [µg/mL] | MIC (K. pneumoniae SI-117) [µg/mL] | MIC (E. coli AG100A) [µg/mL] | MIC (K. pneumoniae UMM) [µg/mL] | MIC (E. coli D22) [µg/mL] | MIC (E. coli ATCC 25922; [2]) [µg/mL] | MIC (N. gonorrhoeae WHO F) [µg/mL] | MIC [1] [µg/mL] | MIC (E. coli ATCC 25922; ATCC25922, read-out: MIC E. coli 25922) [µg/mL] |
| --- | --- | --- | --- | --- | --- | --- | --- | --- | --- |
| CCN1CCN(C(=O)NC(C(=O)N[C@H]2Cc3cccc(C(=O)O)c3OB2O)c2ncc(O)cc2Cl)C(=O)C1=O (stereo partly drawn) [Example 150, (3R)-3-(2-(4-ethyl-2,3-dioxopiperazine-1-carboxamido)-2-(3-chloro-5-hydroxypyridin-2-yl)acetamido)-2-hydroxy-3,4-dihydro-2H-benzo[e][1,2]oxaborinine-8-carboxylic acid] | 0.5 to 1 | > 128 | 2 to 4 | 32 to 64 | 2 to 4 | 32 to 64 | 0.25 to 0.5 (≈ 0.447 to 0.893 µM) | 4 to 8 (≈ 7.15 to 14.3 µM) | – |
| CCN1CCN(C(=O)NC(C(=O)N[C@H]2Cc3ccc(F)c(C(=O)O)c3OB2O)c2ncc(O)cc2Cl)C(=O)C1=O (stereo partly drawn) [Example 151, (3R)-3-(2-(3-chloro-5-hydroxypyridin-2-yl)-2-(4-ethyl-2,3-dioxopiperazine-1-carboxamido)acetamido)-7-fluoro-2-hydroxy-3,4-dihydro-2H-benzo[e][1,2]oxaborinine-8-carboxylic acid] | 0.5 to 1 | 32 to 64 | 8 to 16 | 32 to 64 | 8 to 16 | > 128 | < 0.125 | 1 to 2 (≈ 1.73 to 3.46 µM) | – |
| CCN1CCN(C(=O)N[C@@H](C(=O)N[C@H]2Cc3ccc(F)c(C(=O)O)c3OB2O)c2ccc(O)c(F)c2)C(=O)C1=O [Example 161, (R)-3-((R)-2-(4-ethyl-2,3-dioxopiperazine-1-carboxamido)-2-(3-fluoro-4-hydroxyphenyl)acetamido)-7-fluoro-2-hydroxy-3,4-dihydro-2H-benzo[e][1,2]oxaborinine-8-carboxylic acid] | 0.5 to 1 | > 128 | 32 to 64 | 32 to 64 | 2 to 4 | > 128 | < 0.125 | 1 to 2 (≈ 1.78 to 3.57 µM) | – |
| CCN1CCN(C(=O)N[C@@H](C(=O)N[C@H]2Cc3cccc(C(=O)O)c3OB2O)c2ncc(O)cc2F)C(=O)C1=O [Example 177, (R)-3-((R)-2-(4-ethyl-2,3-dioxopiperazine-1-carboxamido)-2-(3-fluoro-5-hydroxypyridin-2-yl)acetamido)-2-hydroxy-3,4-dihydro-2H-benzo[e][1,2]oxaborinine-8-carboxylic acid] | < 0.25 | 32 to 64 | 0.5 to 1 | 8 to 16 | 0.5 to 1 | 8 to 16 | < 0.125 | 4 to 8 (≈ 7.36 to 14.7 µM) | – |
| CCN1CCN(C(=O)NC(C(=O)N[C@H]2Cc3ccc(F)c(C(=O)O)c3OB2O)c2ccc(S(N)(=O)=O)cc2)C(=O)C1=O (stereo partly drawn) [Example 181, (3R)-3-(2-(4-ethyl-2,3-dioxopiperazine-1-carboxamido)-2-(4-sulfamoylphenyl)acetamido)-7-fluoro-2-hydroxy-3,4-dihydro-2H-benzo[e][1,2]oxaborinine-8-carboxylic acid] | 0.5 to 1 | > 128 | 32 to 64 | 32 to 64 | 8 to 16 | > 128 | 0.25 to 0.5 (≈ 0.413 to 0.826 µM) | 4 to 8 (≈ 6.61 to 13.2 µM) | – |
| NS(=O)(=O)c1ccc(C(NC(=O)N2CCN(CCF)C(=O)C2=O)C(=O)N[C@H]2Cc3ccc(F)c(C(=O)O)c3OB2O)cc1 (stereo partly drawn) [Example 182, (3R)-7-fluoro-3-(2-(4-(2-fluoroethyl)-2,3-dioxopiperazine-1-carboxamido)-2-(4-sulfamoylphenyl)acetamido)-2-hydroxy-3,4-dihydro-2H-benzo[e][1,2]oxaborinine-8-carboxylic acid] | 0.5 to 1 | > 128 | 32 to 64 | 32 to 64 | 2 to 4 | > 128 | 1 to 2 (≈ 1.6 to 3.21 µM) | 4 to 8 (≈ 6.42 to 12.8 µM) | – |
| O=C(O)c1c(F)ccc2c1OB(O)[C@@H](NC(=O)C(NC(=O)N1CCN(CCF)C(=O)C1=O)c1ncc(O)cc1F)C2 (stereo partly drawn) [Example 183, (3R)-7-fluoro-3-(2-(3-fluoro-5-hydroxypyridin-2-yl)-2-(4-(2-fluoroethyl)-2,3-dioxopiperazine-1-carboxamido)acetamido)-2-hydroxy-3,4-dihydro-2H-benzo[e][1,2]oxaborinine-8-carboxylic acid] | < 0.25 | 32 to 64 | 2 to 4 | 8 to 16 | 2 to 4 | 32 to 64 | < 0.125 | 0.25 to 0.5 (≈ 0.432 to 0.863 µM) | – |
| CCN1CCN(C(=O)N[C@H](C(=O)N[C@H]2Cc3ccc(F)c(C(=O)O)c3OB2O)c2ccc(O)c(O)c2Cl)C(=O)C1=O [Example 188, (R)-3-((S)-2-(2-chloro-3,4-dihydroxyphenyl)-2-(4-ethyl-2,3-dioxopiperazine-1-carboxamido)acetamido)-7-fluoro-2-hydroxy-3,4-dihydro-2H-benzo[e][1,2]oxaborinine-8-carboxylic acid] | 2 to 4 | 32 to 64 | 8 to 16 | > 128 | 8 to 16 | 32 to 64 | 4 to 8 (≈ 6.75 to 13.5 µM) | 16 to 32 (≈ 27 to 54 µM) | – |
| CCN1CCN(C(=O)N[C@@H](C(=O)N[C@H]2Cc3ccc(F)c(C(=O)O)c3OB2O)c2ccc(O)c(O)c2Cl)C(=O)C1=O [Example 189, (R)-3-((R)-2-(2-chloro-3,4-dihydroxyphenyl)-2-(4-ethyl-2,3-dioxopiperazine-1-carboxamido)acetamido)-7-fluoro-2-hydroxy-3,4-dihydro-2H-benzo[e][1,2]oxaborinine-8-carboxylic acid] | 0.5 to 1 | 0.5 to 1 | 0.5 to 1 | 0.5 to 1 | 0.5 to 1 | 2 to 4 | 0.25 to 0.5 (≈ 0.422 to 0.844 µM) | 1 to 2 (≈ 1.69 to 3.37 µM) | – |
| CCN1CCN(C(=O)N[C@@H](C(=O)N[C@H]2Cc3cccc(C(=O)O)c3OB2O)c2ccc(O)c(O)c2Cl)C(=O)C1=O [Example 190, (R)-3-((R)-2-(2-chloro-3,4-dihydroxyphenyl)-2-(4-ethyl-2,3-dioxopiperazine-1-carboxamido)acetamido)-2-hydroxy-3,4-dihydro-2H-benzo[e][1,2]oxaborinine-8-carboxylic acid] | < 0.25 | 2 to 4 | < 0.25 | 0.5 to 1 | 0.5 to 1 | 2 to 4 | 0.25 to 0.5 (≈ 0.435 to 0.87 µM) | 1 to 2 (≈ 1.74 to 3.48 µM) | – |
| CCN1C[C@@H](C)N(C(=O)NC(C(=O)N[C@H]2Cc3cccc(C(=O)O)c3OB2O)c2ncc(O)cc2F)C(=O)C1=O (stereo partly drawn) [Example 191, (3R)-3-(2-((R)-4-ethyl-6-methyl-2,3-dioxopiperazine-1-carboxamido)-2-(3-fluoro-5-hydroxypyridin-2-yl)acetamido)-2-hydroxy-3,4-dihydro-2H-benzo[e][1,2]oxaborinine-8-carboxylic acid] | 0.5 to 1 | > 128 | 8 to 16 | > 128 | 8 to 16 | > 128 | 1 to 2 (≈ 1.79 to 3.59 µM) | > 64 | – |
| CCN1CCN(C(=O)NC(C(=O)N[C@H]2Cc3ccc(F)c(C(=O)O)c3OB2O)c2ccc(O)c(O)c2Cl)C(O)C1=O (stereo partly drawn) [Example 194, (3R)-3-(2-(2-chloro-3,4-dihydroxyphenyl)-2-(4-ethyl-2-hydroxy-3-oxopiperazine-1-carboxamido)acetamido)-7-fluoro-2-hydroxy-3,4-dihydro-2H-benzo[e][1,2]oxaborinine-8-carboxylic acid] | 8 to 16 | 8 to 16 | 8 to 16 | 8 to 16 | 8 to 16 | – | 4 to 8 (≈ 6.73 to 13.5 µM) | 16 to 32 (≈ 26.9 to 53.8 µM) | 32 to 64 |

From US12173018B2, “Penicillin-binding protein inhibitors” (priority 2018, dated 2024)
